Test results from US20260102387A1, “IMMUNOSUPPRESSIVE COMPOUNDS” (UNIVERSITÄT BASEL, priority 2022, published 2026).
Entries after “also recorded” stand apart in the source; their conditions may differ.

Tested on: coronin 1 promoter
Test: EC50 analysis for coronin 1 promoter driven GFP inhibition by flow cytometry in RBL cells
Format: cell-based
Details: for rel. potency GFP inhibition: [EC50 GFP inhibition 13a]/[EC50 GFP inhibition compound of interest], 13a = 1.00
Procedure: RBL cells that had been incubated with the indicated calcium channel blockers (amlodipine (3.125 μM) and verapamil (8 μM) concentrations for 48 h were analyzed by flow cytometry for any alteration in coronin 1 promoter driven GFP fluorescence. The results reveal no effect of calcium channel blockers on coronin 1 promoter activity (FIG. 4).
RBL cells expressing GFP under coronin 1 promoter and optionally with RBL cells expressing RFP under CMV promoter were mixed in equal numbers and incubated with the compounds at indicated concentrations for 48-65 h and analyzed by flow cytometry for alteration in coronin 1 promoter (GFP fluorescence), CMV promoter (RFP fluorescence) values. In addition, the cells were labelled with live-dead marker for assessing cell viability status by flow cytometry. Cycloheximide (CHX) serves as positive control and DMSO serves as negative controls. Effective Concentration (EC50) values for coronin 1 promoter inhibition via GFP fluorescence analysis, non-specific promoter inhibition via CMV promoter driven-RFP fluorescence analysis and cell viability via live/dead staining as a measure for toxicity in flow cytometry for compounds (10-22 and 50a-65a) are shown in Table 6 and Table 7. Based on the EC50 analysis of the inhibition of coronin 1 promoter driven GFP fluorescence the (4S,7R)-configurated eutomers were identified (Structures FIG. 9A-C). This is exemplified for compounds containing two stereocenters by eutomers 11c and 13a. […] Subsequent EC50 evaluations (Table 7) were performed with compound 13a as standard for relative potency normalized to a value of 1.00 (relative potency calculated as [EC50 GFP inhibition 13a]/[EC50 GFP inhibition compound of interest]).

Row | SMILES | rel. potency GFP inhibition | coronin 1 promoter activity as assessed by GFP reduction (Amlodipine 3.125 μM, verapamil 8 μM, 48 h, flow cytometry)
1 | COc1ccccc1[C@H]1CC(=O)C2=C(C1)NC(C)=C(C(=O)OC1CCOCC1)[C@@H]2c1cccc(O)c1 [13f, tetrahydro-2H-pyran-4-yl-4-(3-hydroxyphenyl)-7-(2-methoxyphenyl)-2-methyl-5-oxo-1,4,5,6,7,8-hexahydro-3-quinolinecarboxylate] | <0.01 | 
2 | COc1ccccc1[C@H]1CC(=O)C2=C(C1)NC(C)=C(C(=O)OC1CC3CCC(C1)O3)[C@H]2c1cccc(O)c1 (stereo partly drawn) [53a, 8-oxabicyclo[3.2.1]octan-3-yl (4S, 7R)-4-(3-hydroxyphenyl)-7-(2-methoxyphenyl)-2-methyl-5-oxo-1,4,5,6,7,8-hexahydroquinoline-3-carboxylate] | 1.42 | 
3 | COc1ccccc1[C@H]1CC(=O)C2=C(C1)NC(C)=C(C(=O)OC1CC(C)(C)OC(C)(C)C1)[C@H]2c1cccc(O)c1 [52a, 2,2,6,6-tetramethyltetrahydro-2H-pyran-4-yl (4S, 7R)-4-(3-hydroxyphenyl)-7-(2-methoxyphenyl)-2-methyl-5-oxo-1,4,5,6,7,8-hexahydroquinoline-3-carboxylate] | 0.62 | 
4 | COc1ccccc1C1CC(=O)C2=C(C1)NC(C)=C(C(=O)OC1CCOCC1)C2c1ccc(F)c(O)c1F (racemic) [67b, tetrahydro-2H-pyran-4-yl 4-(2,4-difluoro-3-hydroxyphenyl)-7-(2-methoxyphenyl)-2-methyl-5-oxo-1,4,5,6,7,8-hexahydroquinoline-3-carboxylate] | 0.25 | 
5 | CCC(C)(C)COC(=O)C1=C(C)NC2=C(C(=O)C[C@H](c3ccccc3OC)C2)[C@@H]1c1cccc(O)c1 [62a, 2,2-dimethylbutyl (4S, 7R)-4-(3-hydroxyphenyl)-7-(2-methoxyphenyl)-2-methyl-5-oxo-1,4,5,6,7,8-hexahydroquinoline-3-carboxylate] | 0.10 | 
6 | COc1ccc(CCN(C)CCCC(C#N)(c2ccc(OC)c(OC)c2)C(C)C)cc1OC (centres unmarked) [verapamil, reference compound] |  | no effect; also recorded: not inhibiting coronin 1 promoter activity
7 | COc1ccccc1[C@@H]1CC(=O)C2=C(C1)NC(C)=C(C(=O)OC1CCOCC1)[C@@H]2c1cccc(O)c1 [13d, tetrahydro-2H-pyran-4-yl-4-(3-hydroxyphenyl)-7-(2-methoxyphenyl)-2-methyl-5-oxo-1,4,5,6,7,8-hexahydro-3-quinolinecarboxylate] | 0.09 | 
8 | COc1ccccc1[C@H]1CC(=O)C2=C(C1)NC(C)=C(C(=O)O[C@H]1CO[C@H]3OCC[C@H]31)[C@H]2c1cccc(O)c1 [55a, (3R,3aS,6aR)-hexahydrofuro[2,3-b]furan-3-yl (4S, 7R)-4-(3-hydroxyphenyl)-7-(2-methoxyphenyl)-2-methyl-5-oxo-1,4,5,6,7,8-hexahydroquinoline-3-carboxylate] | 0.61 | 
9 | CCOC(=O)C1=C(C)NC2=C(C(=O)C[C@H](c3ccccc3OC)C2)[C@@H]1c1cccc(O)c1 [58a, ethyl (4S, 7R)-4-(3-hydroxyphenyl)-7-(2-methoxyphenyl)-2-methyl-5-oxo-1,4,5,6,7,8-hexahydroquinoline-3-carboxylate] | 0.36 | 
10 | COc1ccccc1[C@H]1CC(=O)C2=C(C1)NC(C)=C(C(=O)OCCCC(C)(C)C)[C@H]2c1cccc(O)c1 [63a, 4,4-dimethylpentyl (4S, 7R)-4-(3-hydroxyphenyl)-7-(2-methoxyphenyl)-2-methyl-5-oxo-1,4,5,6,7,8-hexahydroquinoline-3-carboxylate] | 0.07 | 
11 | COc1ccccc1[C@H]1CC(=O)C2=C(C1)NC(C)=C(C(=O)OC1CCOCC1)C2c1ccc(F)c(O)c1 (mixture of isomers) [66b, tetrahydro-2H-pyran-4-yl 4-(4-fluoro-3-hydroxyphenyl)-7-(2-methoxyphenyl)-2-methyl-5-oxo-1,4,5,6,7,8-hexahydroquinoline-3-carboxylate] | 0.25 | 
